Source: patent US20090298752A1, “APLIDINE TREATMENT OF CANCERS” (PHARMA MAR, S.A., priority 1999, published 2009)

Assay: Phase I, 1 h daily infusion x5 q3wk: toxicity and pharmacokinetics
Type: in vivo, human
Experimental: The objectives are to determine the Maximum Tolerated Dose, the Dose Limiting Toxicity (DLT), the pharmacokinetics (PK) and the recommended dose for phase 2 studies that can be given in a daily 1 hour IV infusion×5 days q 3 weeks. Patients with solid tumours and low and intermediate grade Non-Hodgkin's Lymphomas were eligible. The daily starting dose of aplidine was 80 μg/m^2. Cohorts of 3 patients (pts) are treated at each level with dose escalation according to toxicity, 20 patients were treated with 6 dose levels ranging from 80 μg-720 μg/m^2, 1 patient is presently at the dose of 960 μg/m^2. At total of 48 cycles were administered. Non-haematological toxicities were grade 1 and 2 with fatigue reported in most pts. Grade 1 hypersensitivity reactions were documented in 7 patients. Other toxicities included nausea, anorexia, diarrhoea, and anxiety. […] PK analysis was performed in treatment course 1. Aplidine concentrations were analysed by LC tandem mass spectrography. […] Potentially therapeutic plasma concentrations ([…]) were achieved. […] Accrual is ongoing at 960 μg/m^2.

## aplidine
80-960 μg/m^2 daily x5
  DLT: no DLT has been documented
DL 1, 80 ug/m^2
  Bilirubin Grade 1: 1
  Diarrhoea Grade 1: 1
  Fatigue Grade 1: 1
  Fatigue Grade 2: 2
  Fever Grade 1: 1
  Fever Grade 2: 1
  Haemoglobin Grade 1: 1
  Haemoglobin Grade 2: 2
  Hyper-sensitivity Grade 1: 1
  Hyper-sensitivity Grade 2: 1
  Motor neuropathy Grade 1: 3
  Motor neuropathy Grade 2: 2
  Myalgia/weakness Grade 2: 1
  Nausea Grade 1: 2
  SGOT Grade 1: 1
  Sensory neuropathy Grade 1: 2
  Sensory neuropathy Grade 2: 1
DL 1, 80 ug/m^2, doubtful
  Haemoglobin Grade 3: 3
DL 2, 120 ug/m^2
  Diarrhoea Grade 1: 2
  Fatigue Grade 1: 3
  Haemoglobin Grade 1: 2
  Hyper-sensitivity Grade 1: 1
  Nausea Grade 1: 1
  SGOT Grade 1: 1
  Sensory neuropathy Grade 1: 2
DL 2, 120 ug/m^2, doubtful
  Granulocytes Grade 2: 1
  Haemoglobin Grade 3: 1
  Haemoglobin Grade 4: 2
DL 3, 240 ug/m^2
  CPK Grade 4: 1
  Creatinine Grade 1: 2
  Diarrhoea Grade 2: 2
  Fatigue Grade 1: 1
  Fatigue Grade 2: 1
  Fatigue Grade 3: 1
  Haemoglobin Grade 1: 1
  Haemoglobin Grade 2: 1
  Myalgia/weakness Grade 1: 1
  Nausea Grade 1: 2
  Nausea Grade 2: 1
  SGOT Grade 1: 2
  Sensory neuropathy Grade 1: 1
DL 3, 240 ug/m^2, doubtful
  Granulocytes Grade 1: 1
  Granulocytes Grade 2: 2
  Haemoglobin Grade 4: 2
DL 4, 360 ug/m^2
  Creatinine Grade 1: 1
  Diarrhoea Grade 1: 1
  Fatigue Grade 2: 3
  Fever Grade 1: 1
  Haemoglobin Grade 1: 2
  Haemoglobin Grade 2: 2
  Hyper-sensitivity Grade 1: 1
  Hyper-sensitivity Grade 2: 1
  Motor neuropathy Grade 1: 1
  Nausea Grade 1: 1
  Nausea Grade 3: 1
  SGOT Grade 1: 2
  Sensory neuropathy Grade 1: 1
  Sensory neuropathy Grade 2: 1
DL 4, 360 ug/m^2, doubtful
  Granulocytes Grade 1: 1
  Haemoglobin Grade 3: 1
  Haemoglobin Grade 4: 2
DL 5, 540 ug/m^2
  CPK Grade 1: 1
  Diarrhoea Grade 1: 2
  Fatigue Grade 2: 2
  Fatigue Grade 3: 1
  Fever Grade 2: 1
  Haemoglobin Grade 1: 1
  Haemoglobin Grade 2: 1
  Hyper-sensitivity Grade 1: 1
  Motor neuropathy Grade 1: 1
  Motor neuropathy Grade 2: 1
  Myalgia/weakness Grade 1: 1
  Nausea Grade 1: 2
  Nausea Grade 3: 1
  SGOT Grade 1: 2
  Sensory neuropathy Grade 1: 2
  Sensory neuropathy Grade 2: 1
DL 5, 540 ug/m^2, doubtful
  Granulocytes Grade 1: 1
  Haemoglobin Grade 4: 2
DL 6, 720 ug/m^2
  Bilirubin Grade 1: 1
  CPK Grade 1: 1
  Diarrhoea Grade 1: 1
  Fatigue Grade 1: 1
  Fatigue Grade 4: 1
  Fever Grade 1: 1
  Haemoglobin Grade 2: 2
  Hyper-sensitivity Grade 3: 1
  Motor neuropathy Grade 3: 1
  Myalgia/weakness Grade 4: 1
  Nausea Grade 1: 3
  SGOT Grade 1: 2
  Sensory neuropathy Grade 1: 1
DL 6, 720 ug/m^2, doubtful
  Haemoglobin Grade 3: 2
  Haemoglobin Grade 4: 2
DL 7, 960 ug/m^2
  Fatigue Grade 2: 2
  Haemoglobin Grade 2: 2
  Nausea Grade 1: 1
  Nausea Grade 2: 1
  Sensory neuropathy Grade 1: 1
DL 7, 960 ug/m^2, doubtful
  Granulocytes Grade 1: 1
  Haemoglobin Grade 4: 1
Example 10
  haematological toxicities: no haematological toxicities
  plasma concentrations achieved: > 1000 ng/mL
Example 10, 20 patients
  Grade 1 hypersensitivity reactions: 7 patients
Example 16
  neuropathy or myopathy: No clear evidence of neuropathy or myopathy
median
  total body / plasma clearance: 0.38 L/min
